{
  "source": "patent US10479808B1",
  "about": "“Bisphosphonate-based coordination complexes as enhanced pharmaceutical formulations and method of preparing the same” (University of Puerto Rico, priority 2018, dated 2019)",
  "type_in_all_cases": "physicochemical",
  "key": {"[1]": {"assay": "Dissolution profile in FaSSGF (pH 1.60), ALEN-Cu complexation, UV-Vis", "settings": "for order of structural stability of the complexes: FaSSGF pH 1.60, from dissolution profiles"}, "[2]": {"assay": "Dissolution profile in PBS (pH 7.40), ALEN-Cu complexation, UV-Vis", "settings": "for order of structural stability of the complexes: PBS pH 7.40, from dissolution profiles"}, "[3]": {"assay": "Thermal stability by thermal gravimetric analysis (TGA) under N2", "method": "Thermographs were recorded in a TGA Q500 (TA Instruments Inc.). Thermograph of the BP and pBioCCs were collected using a temperature range of 30-700° C. at 5° C./min under a N2 gas purge. In all cases, ˜10 mg of powder sample was thermally treated. Data was analyzed with TA Universal Analysis software version 4.3A.\nIt was expected that the thermograph of each pBioCCs consists of at least two mayor decomposition profiles one at lower temperature representing the loss of coordinated or lattice water molecules, and another at higher temperature which accounts for the thermal combustion of the organic moiety, the BP ligand, in this case ALEN. A third decomposition event might be observed above 350° C., due to the thermal degradation of the metal/metal oxide."}},
  "note": "Entries after “also recorded” stand apart in the source; their conditions may differ.",
  "data": [
    {"smiles": "NCCCC(O)(P(=O)(O)O)P(=O)(O)O", "note": "[ALEN, Alendronate sodium trihydrate, reference compound]", "values": [
      {"measurement": "time to reach maximum release", "setting": "[1]; FaSSGF pH 1.60, 37 °C", "result": 10, "unit": "s"},
      {"measurement": "time to reach maximum release", "setting": "[2]; PBS pH 7.40, 37 °C", "result": 10, "unit": "min"}
    ]},
    {"smiles": "NCCCC(O)(P(=O)([O-])O)P(=O)([O-])O.O.[Ca+2]", "note": "[ALEN-Ca form I]", "values": [
      {"measurement": "order of structural stability of the complexes", "setting": "[1]", "result": "less stable; also recorded: ALEN-Ca form I<ALEN-Ca form II<ALEN-Zn form I<ALEN-Mg<ALEN-Zn form II"},
      {"measurement": "order of structural stability of the complexes", "setting": "[2]", "result": "ALEN-Mg<ALEN-Ca form I<ALEN-Ca form II<ALEN-Zn form I<ALEN-Zn form II"},
      {"measurement": "thermal stability (in words)", "setting": "[3]", "result": "high thermal stability"}
    ]},
    {"smiles": "NCCCC(O)(P(=O)([O-])O)P(=O)([O-])O.O.[Zn+2]", "note": "[ALEN-Zn form I]", "values": [
      {"measurement": "order of structural stability of the complexes", "setting": "[1]", "result": "ALEN-Ca form I<ALEN-Ca form II<ALEN-Zn form I<ALEN-Mg<ALEN-Zn form II"},
      {"measurement": "order of structural stability of the complexes", "setting": "[2]", "result": "ALEN-Mg<ALEN-Ca form I<ALEN-Ca form II<ALEN-Zn form I<ALEN-Zn form II"},
      {"measurement": "thermal stability (in words)", "setting": "[3]", "result": "high thermal stability"}
    ]}
  ]
}
